# Tests used:
# [1] = test system: transglutaminase kératinocytaire (TGk); test: Keratinocyte transglutaminase (TGk) activity in NHEK cultures (differentiation)
# [2] = test system: stratum corneum (SC) délipidisé; test: Water retention (water-holding capacity, WHC) of delipidised stratum corneum after immersion in aqueous test solutions; set-up: species or system porc; conditions: 8 h immersion, après 6 heures à 25°C et 40% RH
# Experimental: On étudie l'hydratation du stratum corneum (SC) délipidisé et traité par différentes solutions aqueuses.
# Le but de cette étude est de montrer si l'application cutanée d'une solution aqueuse d'extrait de mastocarpus (10% de matière sèche), de floridoside pur à 3,8%, d'acide iséthionique pur à 1,9%, d'un mélange de floridoside pur à 3,8% et d'acide iséthionique pur à 1,9%, modifie significativement l'état d'hydratation du SC délipidisé puis conservé dans une enceinte à 25°C et à 40 % d'humidité relative (RH).
# Dans cette étude, des échantillons de SC, isolés de l'épiderme de morceaux d'oreilles de porc par un traitement à la trypsine (1% dans un tampon phosphate; pH=7,4) puis délipidisés par un solvant (acétone par exemple), ont été immergés pendant 8 heures dans une solution aqueuse d'extrait de mastocarpus 10%, de floridoside pur à 3,8%, d'acide iséthionique pur à 1,9%, d'un mélange de floridoside pur à 3,8% et d'acide iséthionique pur à 1,9%, (3 échantillons de SC par produits). Trois échantillons de SC délipidisé ont été traités par de l'eau ultra pure (contrôle, 18 MΩ), pendant 8 heures. Après traitement, ces échantillons ont été pesés puis placés dans une étuve maintenue à 25°C et à 40% RH. La masse des échantillons de SC traités par chacune des solutions a été déterminée après 1h; 2h; 3h; 4h; 5h et 6h de conservation à 25°C et à 40% RH. […]
# [3] = test system: fibres musculaires en coculture avec des explants de moelle épinière; format: cell-based, cellules musculaires humaines; embryons de rat Wistar
# [4] = acide rétinoïque, concentration not printed in this table (10^-7M per Tableau 4)
smiles,measurement,setting,value
CC1=C(/C=C/C(C)=C/C=C/C(C)=C/C(=O)O)C(C)(C)CCC1 [Acide rétinoïque],% témoin (activité TGk),[1]; 10^-7M,52%
same,Activité TGk (cpm),[1]; 10^-7M,447 cpm
same,réduction de l'activité TGk,[1]; 10^-7M,46%
same,"% (activité TGk/µg de protéines, par rapport au témoin)",[1]; [4],67%
same,activité/µg (activité TGk par rapport à la quantité de protéines),[1]; [4],131
[Ca+2].[Cl-].[Cl-] [Chlorure de calcium],"% (activité TGk/µg de protéines, par rapport au témoin)","[1]; 1,5 mM",317%
same,% témoin (activité TGk),"[1]; 1,5 mM",394%
same,activité/µg (activité TGk par rapport à la quantité de protéines),"[1]; 1,5 mM",626
same,Activité TGk (cpm),"[1]; 1,5mM, sans calcium dans le milieu",3408 cpm
same,activité transglutaminase plus forte en milieu calcium qu'en milieu sans calcium,"[1]; chlorure de calcium 1,5 mM",~4 fois
CC1=C(/C=C/C(C)=C/C=C/C(C)=C/CO)C(C)(C)CCC1 [Rétinol],"% (activité TGk/µg de protéines, par rapport au témoin)",[1]; 10^-6 M,72%
same,% témoin (activité TGk),[1]; 10^-6 M,54%
same,Activité TGk (cpm),[1]; 10^-6 M,465 cpm
same,activité/µg (activité TGk par rapport à la quantité de protéines),[1]; 10^-6 M,142
same,réduction de l'activité TGk,[1]; 10^-6 M,48%
O=S(=O)(O)CCO [acide iséthionique],état de déshydratation des échantillons de SC,"[2]; acide iséthionique 1,9%, vs contrôle",moins déshydratés que les échantillons contrôles
CCCC(C)(COC(N)=O)COC(=O)NC(C)C (centres unmarked) [carisoprodol],fréquence de contraction des 3 fibres musculaires sélectionnées,"[3]; 10^-3 M (0,03%), après 1 minute et 2 heures d'incubation",a bloqué
same,activité contractile après recharge en glucose,"[3]; 10^-3 M, 48 heures d'incubation, apport de glucose",n'a pas permis aux fibres musculaires de reprendre une activité contractile
same,pourcentage moyen de contraction des trois fibres (récupération),"[3]; carisoprodol 10^-3 M, après changement de milieu et 2 heures sans produit, relative to initial frequency",111%
"OCC(CO)O[C@H]1O[C@H](CO)[C@H](O)[C@H](O)[C@H]1O [floridoside, 2-O-glycérol-α-D-galactopyranoside]",état de déshydratation des échantillons de SC,"[2]; floridoside 3,8%, vs eau",n'était pas significativement différent
